The values that follow come from patent US20060205677A1 (XenoPort, Inc., priority 2005, published 2006).

One series relates to ME180 cells. In words: In vitro cytotoxicity (Alamar blue growth inhibition), ME180. Type of series: cell-based, human. To be noted: ME180, 48 h. As to the method:
(§1) The effect of experimental compounds on cancer cell growth and viability was measured in a panel of human cancer cells grown in vitro. All cancer cell lines were obtained from the American […]. Cells were maintained in the following media: TUR, H69AR, Calu-6, ME180, and PC3 cells were grown in RPMI medium containing 4.5 g/L glucose, 10% FBS, 4 mM L-glutamine, and 1 mM sodium pyruvate); and HT29 cells were grown in DMEM with 4.5 g/L glucose, 10% FBS, and 6 mM L-glutamine. All cells were grown at 37° C. in 5% CO2 and passaged bi-weekly.
(§2) For cytoxicity studies, cells were seeded into 96-well clear-bottom microtiter plates at the following densities: TUR (7,500 cells/well), HT29 (5,000 cells/well), H69AR (10,000 cells/well), Calu-6 (15,000 cells/well), and ME180 (2,500 cells/well). Cells were maintained at 37° C. with 5% CO2 for 24 hours prior to addition of various experimental compounds. Each condition was measured in triplicate. For compounds dissolved in DMSO, the final DMSO concentration in each well and in the non-drug treated control cells was constant and below 1% in all studies. The number of viable cells was determined after 24, 48, and 72 hours using Alamar blue fluorescence. Briefly, Alamar blue (10 mM) was added to each well for 4 hours, and the number of viable cells estimated by measuring the fluorescence of reduced Alamar blue (530 nm excitation, 590 nm emission). To correct for background fluorescence, cells were treated with 100% DMSO to eliminate all viable cells. The effect of drug on cell growth was determined by calculating the fraction of live cells treated with drug compared to untreated cells: (F1drug treated−F1DMSO killed)/(F1untreated−F1DMSO killed).

The subject of another series is PC3 cells. In words: In vitro cytotoxicity (Alamar blue growth inhibition), PC3. Type of series: cell-based, human. To be noted: PC3, 48 h. As to the method: as §1, §2
For orientation: Resazurin is reduced to fluorescent resorufin, in cell work by metabolically active cells.

In a further series the test system is Calu-6 cells. In words: In vitro cytotoxicity (Alamar blue growth inhibition), Calu-6. It is filed as cell-based, human. The note with it: Calu-6, 48 h. On the procedure: as §1, §2
The subject of the next series is H69AR cells. In words: In vitro cytotoxicity (Alamar blue growth inhibition), H69AR. Type of series: cell-based, human. The note with it: 48 h. As to the method:
as §1, §2

The test system of a further series is TUR cells. In words: In vitro cytotoxicity (Alamar blue growth inhibition), TUR. The note with it: 48 h. Type of series: cell-based, human. On the procedure: as §1, §2
Series [1] relates to HT29 cells. In words: In vitro cytotoxicity (Alamar blue growth inhibition), HT29. It is filed as cell-based, human. The note with it: HT29, 48 h. On the procedure: as §1, §2
For another series, the system named is HT29 (Colon) xenograft. In words: In vivo tumor growth inhibition, mouse xenograft, HT29. Further details: species or system nude athymic CD-1 mice. The note with it: IP. As to the method: Tumor xenograft studies were performed using nude athymic CD-1 mice (Charles River Laboratories). Human cancer cells (5×10^6 PC3, 5×10^6 HT29, 10^7 Calu-6, and 5×10^6 ME180) were implanted in the hind flank of nude mice. Tumor growth was measured using calipers and tumor volume calculated using the formula: (width^2×(length/2)). Tumor volume was measured 3 days per week. Animal weight was measured 3 days per week to assess compound toxicity.
Compounds were tested for in vivo tumor growth inhibition as follows. Animals bearing tumors 100-200 mg were sorted into groups (5-8 animals) with similar average tumor mass per group. Drug doses were administered by intraperitoneal (IP) injection (0.5 mL). Test compounds were dissolved in phosphate buffered saline (PBS) and concentration adjusted for animal weight. Actual drug concentrations in formulated doses were verified by quantitative nitrogen detection. Animals were dosed every 7 days for 21 days in most studies. In several studies, animals were dosed twice weekly (days 0, 4, 7, 10, 14, etc.). Tumor volume and animal weight were measured on days 0, 2, 4, 7, 9, 11, 14, 16, 18, 21, 23, 25, and 28. At the end of the study, animal blood was removed for analysis of liver and kidney function (BUN, creatine, AST and ALT; analytical measurements performed by Quality Clinical Labs). Tumor volume at the end of the study was calculated as a percentage of the tumor volume on day 0. The percent tumor growth inhibition was obtained from the ratio of the percentage tumor volume increase in drug treated animals to the percentage tumor volume increase in saline treated animals.

The subject of series [2] is HT29 cells. In words: Effect of sugar transport inhibitor (phloridzen) on in vitro cytotoxicity. The note with it: 48 hours. Type of series: cell-based, human. On the procedure: as §1, §2
Series [3] is described as follows: Determination of maximum tolerated dose (MTD). The note with it: ratio of maximum tolerated dose to minimally effective dose. It is filed as in vivo, nude mice. On the procedure:
To determine the maximum tolerated doses for compound (54) relative to clinically used platinum anticancer agents, nude mice were injected with increasing drug doses (0.5 mL, intraperitoneally) on days 0, 7, and 14. […] The therapeutic index of a given drug is defined as the ratio of the maximum tolerated dose to the minimally effective dose.

What is called GI50 is the concentration at which growth is held to half of that of the control.

On to `O=C(CCC1C(=O)[O][Pt]2([NH]C3CCCCC3[NH]2)[O]C1=O)NC1OC(CO)C(O)C(O)C1O` [(42), [1R,2R-Cyclohexanediamine-N,N′][{2-(β-D-Galactopyranos-1-ylamido)ethyl}propanedioato(2-)-O,O′]Platinum (II)], for which the GI50 turned out to be 4 µM with ME180 cells; 45 µM with PC3 cells; 131 µM in the series with Calu-6 cells; 188 µM with H69AR cells; 22 µM in the series on TUR cells; 860 µM in the series with HT29 cells [1].
In the case of `O=C(CCC1C(=O)[O][Pt]2([NH]C3CCCCC3[NH]2)[O]C1=O)NC1OC(CO)C(O)C(O)C1O` [(45), [1R,2R-Cyclohexanediamine-N,N′][{2-(β-D-Mannopyranos-1-ylamido)ethyl}propanedioato(2-)-O,O′]Platinum (II)], the GI50 came out at 84 µM in the series on H69AR cells and 28 µM in the series with TUR cells.
`O=C(CCCC1C(=O)[O][Pt]2([NH]C3CCCCC3[NH]2)[O]C1=O)NC1OC(CO)C(O)C(O)C1O` [(51), [1R,2R-Cyclohexanediamine-N,N′][{3-(β-D-Galactopyranos-1-ylamido)propyl}propanedioato(2-)-O,O′]Platinum (II)]: the GI50 in the series on ME180 cells turned out to be 5 µM; in the series with PC3 cells, 84 µM; in the series on Calu-6 cells, 255 µM; in the series on H69AR cells, 286 µM; in the series on TUR cells it was 37 µM; with HT29 cells [1] it was 374 µM.
On to `N.N.O=C(CCCC1C(=O)[O][Pt][O]C1=O)NCC1OC(O)C(O)C(O)C1O` [(60), [Diammine][{3-(α,β-D-Galactopyranos-6-ylamido)propyl}propanedioato(2-)-O,O′]Platinum (II)], for which the values for the GI50 in the series on H69AR cells and in the series with TUR cells were 79 µM and 117 µM, respectively.
Take `O=C(CCCC1C(=O)[O][Pt]2([NH]C3CCCCC3[NH]2)[O]C1=O)NCC1OC(O)C(O)C(O)C1O` [(66), [1R,2R-Cyclohexanediamine-N,N′][{3-(α,β-D-Glucopyranos-6-ylamido)propyl}propanedioato(2-)-O,O′]Platinum (II)]: the GI50 turned out to be 7 µM with ME180 cells; 163 µM in the series on Calu-6 cells; 102 µM in the series with H69AR cells; 15 µM with TUR cells; 222 µM in the series with HT29 cells [1].
With `COC1OC(CNC(=O)CCCC2C(=O)[O][Pt]3([NH]C4CCCCC4[NH]3)[O]C2=O)C(O)C(O)C1O` [(67), [1R, 2R-Cyclohexanediamine-N,N′][{3-(Methyl-α-D-Glucopyranos-6-ylamido)propyl}propanedioato(2-)-O,O′]Platinum (II)], the GI50 with ME180 cells amounted to 5 µM; in the series on Calu-6 cells it was 68 µM; in the series on H69AR cells, 185 µM; with TUR cells, 21 µM; in the series on HT29 cells [1], 234 µM.
For `O=C1[O][Pt]2([NH]C3CCCCC3[NH]2)[O]C(=O)C1CCNC(=O)C1OC(O)C(O)C(O)C1O` [(74), [1R,2R-Cyclohexanediamine-N,N′][{2-(α,β-D-Glucuron-6-yl-amido)ethyl}propanedioato(2-)-O,O′]Platinum (II)], the GI50 in the series on H69AR cells and with TUR cells was 53 µM in each case.
Regarding `O=C1[O][Pt]2([NH]C3CCCCC3[NH]2)[O]C(=O)C1CCNC(=O)C1OC(O)C(O)C(O)C1O` [(77), [1R, 2R-Cyclohexanediamine-N,N′][{2-(α,β-D-Galacturon-6-yl-amido)ethyl}propanedioato(2-)-O,O′]Platinum (II)], the GI50 in the series on H69AR cells and in the series on TUR cells was 38 µM each time.
On to `COC1OC(C(=O)NCCC2C(=O)[O][Pt]3([NH]C4CCCCC4[NH]3)[O]C2=O)C(O)C(O)C1O` [(78), [1R,2R-Cyclohexanediamine-N,N′][{2-(Methyl-β-D-Glucuron-6-yl-amido)ethyl}propanedioato(2-)-O,O′]Platinum (II)], for which the 50% growth inhibitory concentration (GI50) in the series on H69AR cells amounted to 76 µM; with TUR cells, 15 µM; in the series with HT29 cells [1] it was 103 µM.
Consider `N.N.O=C(CCCC1C(=O)[O][Pt][O]C1=O)NC1C(O)OC(CO)C(O)C1O` [(82), [Diammine][{3-(α,β-D-Glucopyranos-2-yl-amido)propyl}propanedioato(2-)-O,O′]Platinum (II)], for which the GI50 turned out to be 11 µM with ME180 cells; 133 µM with PC3 cells; 300 µM in the series with Calu-6 cells; 112 µM in the series on H69AR cells; 142 µM with TUR cells; 800 µM with HT29 cells [1].
For `O=C1[O][Pt]2([NH]C3CCCCC3[NH]2)[O]C(=O)C1CCCC1OC(CO)C(O)C(O)C1O` [(83), [1R, 2R-Cyclohexanediamine-N,N′][{3-(α,β-D-Mannopyranos-1-yl)propyl}propanedioato(2-)-O,O′]Platinum (II)], the GI50 in the series on ME180 cells came out at 10 µM; with PC3 cells it was 100 µM; in the series with Calu-6 cells, 155 µM; in the series with H69AR cells it was 163 µM; in the series with TUR cells, 41 µM; in the series on HT29 cells [1] it was 117 µM.
Regarding `NC1CCCCC1N.O=C1[O][Pt][O]C(=O)C1CCC1OC(CO)C(O)C(O)C1O` [(88), [1R,2R-Cyclohexanediamine-N,N′][{2-(α,β-D-Glucopyranos-1-yl)ethyl}propanedioato(2-)-O,O′]Platinum (II)], the GI50 in the series with ME180 cells was found to be 13 µM; in the series on PC3 cells, 112 µM; with Calu-6 cells, 260 µM; in the series with H69AR cells, 98 µM; in the series with TUR cells it was 31 µM; in the series on HT29 cells [1] it was 226 µM.
Regarding `O=C1[O][Pt]2([NH]C3CCCCC3[NH]2)[O]C(=O)C1CCC1OC(CO)C(O)C(O)C1O` (stereo not shown) [(93)], the 50% growth inhibitory concentration (GI50) turned out to be 7 µM in the series with ME180 cells; 69 µM in the series with PC3 cells; 139 µM with Calu-6 cells; 78 µM with H69AR cells; 20 µM in the series with TUR cells; 178 µM in the series with HT29 cells [1].
`N.N.[Cl][Pt][Cl]` [Cisplatin, reference compound]: the GI50 in the series with ME180 cells came out at 1 µM; with PC3 cells it was 31 µM; with Calu-6 cells, 149 µM; in the series on H69AR cells it was 4 µM; in the series with HT29 cells [2] (HT29, 0 mM phloridzen, read-out: GI50 of Uptake in HT29 Cells, 0 mM Phoridzen) it was 261 µM; with HT29 cells [2] (HT29, 0.2 mM phloridzen, read-out: GI50 of Uptake in HT29 Cells, 0.2 mM Phoridzen) it was 194 µM. Also, the 50% growth inhibitory concentration (GI50) in the series on HT29 cells [2] (HT29, 0.5 mM phloridzen, read-out: GI50 of Uptake in HT29 Cells, 0.5 mM Phoridzen) was 192 µM; in the series with HT29 cells [2] (HT29, 1.0 mM phloridzen, read-out: GI50 of Uptake in HT29 Cells, 1.0 mM Phoridzen), 254 µM; with TUR cells it was 10 µM; in the series with HT29 cells [1], 30 µM. Moreover, the “Percent Tumor Growth Inhibition HT29 (Colon)” value in the series with HT29 (Colon) xenograft (2 mg/kg) came out at 69%.
For `O=C1[O][Pt]2([NH][C@@H]3CCCC[C@H]3[NH]2)[O]C1=O` [Oxaliplatin, oxaliplatin, reference compound], the GI50 in the series with ME180 cells is 28 µM; in the series on PC3 cells, 113 µM; in the series with Calu-6 cells it was 52 µM; with H69AR cells it was 60 µM; with TUR cells it was 42 µM; with HT29 cells [1], 133 µM. Moreover, the “Percent Tumor Growth Inhibition HT29 (Colon)” value with HT29 (Colon) xenograft (5 mg/kg) is on record as 40%. The “Therapeutic Index MTD/Min Eff” value in series [3] is reported as 2.0.
